# Entries after “also recorded” stand apart in the source; their conditions may differ.
# Columns and labels:
# [1] = system: myoblasts from a mouse model of Duchenne muscular dystrophy (mdx4cv); assay: NE-induced myoblast death, mdx4cv mouse myoblasts treated with mouse NE; type: cell-based; details: FIG. 1E
# Description: (§1) The number of live cells in each condition was counted and plotted as percentage of the number of live cells in the untreated (Control) condition.
# [2] = system: dystrophin-deficient mice (mdx4cv strain); assay: Myofiber necrosis (mIgG uptake on immunostained cryosections); type: in vivo, mouse; details: 12 weeks, FIG. 10
# Protocol: In FIG. 10, myofiber necrosis was measured by calculating the percentage of myofibers that uptake mouse immunoglobulins (mIgG) on immunostained cryosections. IgG are normally present only in the blood and the extracellular matrix within tissues, but are uptaken by necrotic cells that have permeable plasma membranes due to cell damage damage.
# [3] = system: dystrophin-deficient mice (mdx4cv strain); assay: Inflammation transcripts in muscle by RNA sequencing; type: in vivo, mouse; details: elastase inhibitor alone, 12 weeks; FIGS. 11A, 11B
# Protocol: In FIGS. 11A and 11B, mRNA was extracted from muscles of the mice, then transcripts were quantified using next generation sequencing. […] Mdx^4cv mice were treated for 12 weeks with either placebo (Plcb, gray boxes) or prednisolone (1 mg/Kg/day, cyan boxes) alone or in combination with the elastase inhibitor alvelestat (Alv) at two different doses (10 mg/Kg/day, pink boxes; 25 mg/Kg/day, purple boxes). Each box-and-whiskers graph represent the levels of a marker of the immune response detected by RNA sequencing (n=6 per treatment group, Y-axis scale on the left). The overlayed line graphs show the effect size of each treatment vs Plcb calculated and plotted as Cohen's d (Y-axis scale on the right). Significance of each treatment vs Plcb: ***=p<0.001, **=p<0.01, *=p<0.05.
# [4] = system: dystrophin-deficient mice (mdx4cv strain); assay: 12-week oral treatment of mdx4cv mice, overall efficacy; type: in vivo, mouse; details: elastase inhibitor orally, concomitantly with oral prednisolone
# Protocol: FIG. 1F is a graphical illustration of data gathered from in vivo testing efficacy of a placebo, as compared to the elastase inhibitor Alvelestat, alone at various administration concentrations, and in combination with the glucocorticoid prednisolone at various administration concentrations. In this, and the following figures, the abbreviation “Plcb” refers to administration of a placebo, the abbreviation “Pred” refers to administration of prednisolone at 1 mg/kg/day, the abbreviation “Alv10” refers to the administration of the elastase inhibitor alvelestat at 10 mg/kg/day, and the abbreviation “Alv25” refers to the administration of the elastase inhibitor alvelestat at 25 mg/kg/day.
# The administration of the various compounds occurred over a 12-week period, in a controlled randomized, double blinded test using dystrophin-deficient mice (mdx4cv strain). In FIG. 1F, beginning during the tenth week of the test, the mice were exposed to an activity wheel, with the cumulative distance plotted on the y-axis and the number of days spent with the exercise wheel plotted on the x-axis.
# [5] = system: myoblasts isolated from a patient affected by Duchenne muscular dystrophy; assay: NE-induced myoblast death, DMD patient myoblasts treated with human NE; type: cell-based; details: for rescue of NE-induced myoblast death (number of live cells as percentage of untreated Control): DMD patient myoblasts treated with human NE, FIG. 1D; for effectiveness against human NE compared with mouse NE: comparison of FIG. 1D (hNE) and FIG. 1E (mNE)
# Description: as §1
# [6] = biological target: T1, Human NE (hNE) (Homo sapiens, UniProt P08246); assay: Human NE activity in vitro, cumulative elastase activity over time; type: biochemical; details: hNE incubated with various concentration of inhibitor; FIGS. 1A-1C
# T1 sequence (P08246 30-267): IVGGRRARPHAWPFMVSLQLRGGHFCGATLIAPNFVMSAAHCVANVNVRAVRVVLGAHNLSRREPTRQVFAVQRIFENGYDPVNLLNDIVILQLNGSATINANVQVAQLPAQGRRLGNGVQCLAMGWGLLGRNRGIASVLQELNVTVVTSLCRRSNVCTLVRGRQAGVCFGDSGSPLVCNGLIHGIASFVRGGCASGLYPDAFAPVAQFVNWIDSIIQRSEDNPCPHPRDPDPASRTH
# Protocol: In FIGS. 1A-1C Human NE (hNE) was incubated for the indicated amount of time (X-axis) either alone (Control, black line) or in the presence of various concentration of inhibitor, as indicated in each graph (colored lines). The cumulative elastase activity detected over time is plotted.
# Several methods for measuring elastase enzymatic activity are known in the art. Merely by way of example, elastase activity can be determined by measuring the fluorescence emitted by a fluorigenic peptide such as MeOSuc-Ala-Ala-Pro-Val-AFC or Suc-Ala-Ala-Ala-AMC. Fluorescence may be measured, for example, using a plate reader. Other suitable assays for measuring elastase activity will be known to the skilled person. These may include measuring the product generated by incubation with a fluorescently labelled peptide such as 5-FAM-Arg-Glu-Ala-Val-Val-Tyr or 5-FAM-Ala-Ala-Ala-Phe-Tyr-Asp using an instrument that detects the size of the fluorescently labelled probe.
# [7] = system: dystrophin-deficient mice (mdx4cv strain); assay: Muscle fibrosis, Sirius Red staining of gastrocnemius cryosections; type: in vivo, mouse; details: 12 weeks, FIG. 13
# Protocol: FIG. 13 illustrates fibrosis levels of the various cohorts, assessed on cryosections of gastrocnemius muscles from the mice, which were stained with Sirius Red to detect fibrillar collagen. Untreated dystrophic mice were euthanized at the age when treatments start (Pre-tr) and used as baseline for disease progression. Images were analyzed for their fluorescence intensity (Sirius red emits fluorescence in the yellow-red band of the light spectrum) as a measure of collagen abundance per unit area (e.g. per pixel), which was multiplied by the total Sirius red+ area as a proxy for 3D evaluation of fibrillar collagen content.
# [8] = system: dystrophin-deficient mice (mdx4cv strain); assay: Diaphragm strip tetanic force and residual force; type: in vivo, mouse
# [9] = system: dystrophin-deficient mice (mdx4cv strain); assay: Muscle mass: quadriceps wet weight and diaphragm cross-sectional area; type: in vivo, mouse; details: 12 weeks; for prednisolone-induced loss of muscle mass / muscle atrophy: in combination with prednisolone, FIGS. 15, 16; for muscle mass (quadriceps wet weight): single agent, FIG. 15
# Description: FIG. 15 illustrates the wet weight of quadriceps muscle groups dissected from dystrophic mice at treatment start (baseline, Pre-Tr) or after the 12 week administration period, at the time of euthanasia.
# [10] = system: dystrophin-deficient mice (mdx4cv strain); assay: Serum muscle creatine kinase (mCK) activity; type: in vivo, mouse; details: 12 weeks; FIG. 6
# Description: FIG. 6 is a graphical illustration of muscle creatine kinase (mCK) activity for various cohorts of tested mice (including mice pre-treatment with any elastase inhibitor or glucocorticoid) at the conclusion of the 12 week administration period. FIG. 7 is a graphical illustration of MyoD protein levels for various cohorts of tested mice (including mice pre-treatment with any elastase inhibitor or glucocorticoid) at the conclusion of the 12 week administration period. FIG. 8 is a graphical illustration of liver pathology scores for various cohorts of tested mice (including mice pre-treatment, with any elastase inhibitor or glucocorticoid) at the conclusion of the 12 week administration period.
Compound,rescue of NE-induced myoblast death (number of live cells as percentage of untreated Control) [1],rescue of NE-induced myoblast death (number of live cells as percentage of untreated Control) [5],effectiveness against human NE compared with mouse NE [5],inhibiting human NE activity in vitro [6],muscle mass (quadriceps wet weight) [9],further results
Cc1c(-c2ccnn2C)cc(C(=O)NCc2ccc(S(C)(=O)=O)cn2)c(=O)n1-c1cccc(C(F)(F)F)c1 [Alvelestat],similarly effective at blocking NE-induced myoblast death,similarly effective at rescuing NE-induced myoblast cell death; also recorded: similarly effective at blocking NE-induced myoblast death,most effective against human NE,similarly potent,increased it,"myofiber necrosis ([2]; alvelestat alone, 10 and 25 mg/kg/day): decreases myofiber necrosis in a dose-dependent manner; also recorded: reduces necrosis; myofiber necrosis / myofiber stability ([2]; combined with prednisolone 1 mg/kg/day): additive affect on myofiber stability; inflammation (immune response transcripts) [3]: does not significantly affect inflammation; prednisolone efficacy [4]: enhances prednisolone efficacy; muscle fibrosis ([7]; alone): decreases muscle fibrosis; prednisolone-induced fibrosis ([7]; in combination with prednisolone): prevents prednisolone-induced fibrosis; diaphragm weakness (specific tetanic force, residual force) ([8]; alone and in combination with prednisolone, FIGS. 17-19): affects diaphragm weakness independent of muscle loss in a complex manner; prednisolone-induced loss of muscle mass / muscle atrophy [9]: partly rescued the prednisolone-induced loss of muscle mass in a dose-dependent manner that appears inversely correlated; prednisolone-induced loss of muscle mass / muscle atrophy ([9]; listed as AZD9668): reduces prednisolone induced muscle atrophy; serum mCK levels (muscle damage) [10]: lowers serum mCK levels"
CC(=O)C1=C(C)N(c2cccc(C(F)(F)F)c2)C(=O)N[C@@H]1c1ccc(C#N)nc1 [BAY-678],similarly effective at blocking NE-induced myoblast death,,,,,
COc1cc(C(C)C)c2c(c1)S(=O)(=O)N(COc1cc(=O)n3cccc(OCCN4CCCCC4)c3n1)C2=O [SSR69071],similarly effective at blocking NE-induced myoblast death,similarly effective at rescuing NE-induced myoblast cell death; also recorded: similarly effective at blocking NE-induced myoblast death,most effective against human NE,similarly potent,,
C[C@]12C=CC(=O)C=C1CC[C@@H]1[C@@H]2[C@@H](O)C[C@@]2(C)[C@H]1CC[C@]2(O)C(=O)CO [prednisolone],,,,,dramatically decreased muscle mass,"residual force at 15 seconds after peak force (percentage of the peak force) ([8]; diaphragm strips, 20 second tetanus, FIG. 19): decline in residual force, which is greater for prednisolone alone"

# From patent US11918570B2, “Method of treatment for prevention of glucocorticoid toxicity and/or enhancement of muscle regeneration via neutrophil elastase inhibition” (The Research Foundation for The State University of New York, priority 2020, dated 2024)
